From publication PMC12615753, “Glutathione as a taste modulator: molecular mechanisms of interaction with umami and sweet taste receptors” (Food Chemistry: Molecular Sciences, 2025)

Molecular target: T1, hTAS1R1 S172A/rTAS1R3 (UniProt Q7RTX1+Q923K1, S172A)
T1 construct: UniProtKB number Q7RTX1–1); The cDNA coding region of rTAS1R3 was synthesized with optimized-codon usage for human expression; expressed in transfected cells; host or cells: HEK293T/17
T1 sequence (Q7RTX1 21-841 S172A): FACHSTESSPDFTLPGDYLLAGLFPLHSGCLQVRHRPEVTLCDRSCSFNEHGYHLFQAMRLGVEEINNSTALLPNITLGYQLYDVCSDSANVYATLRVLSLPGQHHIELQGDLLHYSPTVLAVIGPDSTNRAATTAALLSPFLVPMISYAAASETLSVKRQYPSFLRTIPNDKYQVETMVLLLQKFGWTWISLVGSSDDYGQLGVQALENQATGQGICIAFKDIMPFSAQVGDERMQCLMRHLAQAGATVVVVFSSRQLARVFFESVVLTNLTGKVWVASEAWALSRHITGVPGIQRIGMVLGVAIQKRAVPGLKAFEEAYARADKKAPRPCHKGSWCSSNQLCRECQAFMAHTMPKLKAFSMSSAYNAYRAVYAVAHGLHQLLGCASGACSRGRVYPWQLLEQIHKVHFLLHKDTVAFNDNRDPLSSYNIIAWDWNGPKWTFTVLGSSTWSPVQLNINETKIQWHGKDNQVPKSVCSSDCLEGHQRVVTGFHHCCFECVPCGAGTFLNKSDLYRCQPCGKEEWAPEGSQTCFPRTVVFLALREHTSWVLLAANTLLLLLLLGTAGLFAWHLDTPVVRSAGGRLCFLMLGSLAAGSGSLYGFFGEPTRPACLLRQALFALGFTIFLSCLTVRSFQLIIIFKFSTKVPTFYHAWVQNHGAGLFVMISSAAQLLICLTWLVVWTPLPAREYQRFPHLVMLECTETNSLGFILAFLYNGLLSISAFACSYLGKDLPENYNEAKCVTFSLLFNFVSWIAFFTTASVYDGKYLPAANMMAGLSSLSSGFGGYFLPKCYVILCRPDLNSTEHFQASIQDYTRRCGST
T1 sequence (Q923K1 21-858): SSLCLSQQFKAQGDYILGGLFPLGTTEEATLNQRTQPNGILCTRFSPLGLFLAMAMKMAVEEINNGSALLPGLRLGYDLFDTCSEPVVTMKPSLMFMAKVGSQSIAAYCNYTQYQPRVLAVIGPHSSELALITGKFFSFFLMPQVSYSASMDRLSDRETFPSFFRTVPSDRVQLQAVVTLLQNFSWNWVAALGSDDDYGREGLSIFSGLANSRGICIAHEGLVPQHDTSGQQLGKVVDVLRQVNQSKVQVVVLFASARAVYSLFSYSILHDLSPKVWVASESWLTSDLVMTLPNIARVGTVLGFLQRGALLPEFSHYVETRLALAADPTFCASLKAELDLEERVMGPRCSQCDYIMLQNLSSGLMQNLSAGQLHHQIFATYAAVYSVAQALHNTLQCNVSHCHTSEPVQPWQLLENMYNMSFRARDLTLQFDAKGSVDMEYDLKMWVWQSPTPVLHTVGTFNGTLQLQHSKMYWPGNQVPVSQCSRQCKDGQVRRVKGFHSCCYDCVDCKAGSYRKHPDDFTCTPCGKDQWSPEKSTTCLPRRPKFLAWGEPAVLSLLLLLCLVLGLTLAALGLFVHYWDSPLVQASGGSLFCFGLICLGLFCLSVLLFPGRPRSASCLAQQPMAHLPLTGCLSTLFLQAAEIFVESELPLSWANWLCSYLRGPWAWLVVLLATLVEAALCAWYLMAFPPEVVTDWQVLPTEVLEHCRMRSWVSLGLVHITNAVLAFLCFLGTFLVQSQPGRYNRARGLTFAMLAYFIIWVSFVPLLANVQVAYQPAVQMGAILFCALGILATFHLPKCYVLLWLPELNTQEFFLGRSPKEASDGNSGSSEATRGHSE
Test: Calcium assay, hTAS1R1 mutant co-expressed with rTAS1R3
Format: cell-based, human, rat
Conditions: for response to the agonist alone, vs WT: S172A
Source text: Chimeric Gα proteins, such as Gα16Gust44, Gα16Gi3 or Gα15i2, are widely used in the functional expression of TAS1R receptors ([Backes et al., 2015]; [Suess et al., 2015]; [Toda et al., 2021], [Toda et al., 2013], [Toda et al., 2018]; [Zhang et al., 2008]). Chimeric Gα15i2 (([Toda et al., 2013]), Supplementary data) was generated by replacing the last five residues of the C-terminal tail of rat Gα15i2 (EINLL) (UniProt number G3V6N8; https://www.uniprot.org/uniprot/) with the counterpart sequence from human GNAI2 (DCGLF) (UniProt number P04899-1) and cloning into the pcDNA3.1/Hygro vector (Invitrogen, Thermo Fisher Scientific, Illkirch, France) between the HindIII and NotI restriction sites, resulting in the plasmid pcDNA3.1-Gα15i2. Chimeric Gα16Gust44 construct have already been reported ([Raliou et al., 2011]). Briefly, Gα16Gust44 was generated by replacing the C-terminal of Gα16 with the C-terminal 44 residues of gustducin. As previously described, hTAS1R1 was amplified from human fungiform papillae cDNA and cloned and inserted into pcDNA3 (Invitrogen), generating pcDNA3-TAS1R1-WT (wild-type) ([Raliou et al., 2011]). […] The cDNA coding region of rTAS1R3 was synthesized with optimized-codon usage for human expression (Genewiz) and was cloned and inserted into the mammalian pcDNA4/myc-HisA (Invitrogen) expression vector between the EcoRI and NotI restriction sites, resulting in the plasmid pcDNA4-rTAS1R3. […] The sequence integrity of all the plasmid constructs was verified via automated DNA sequencing (Genewiz).
The hTAS1R1 mutants were co-expressed with the rTAS1R3 subunit in HEK293 cells. […] As a control, the functionality of the mutated receptors was checked after stimulation with S807 (Fig. S8), which interacts with TAS1R1-TMD ([Zhang et al., 2008]).

Row | Structure (SMILES) | response to the agonist alone, vs WT | EC50 [mM]
1 | CCCC(CCC)NC(=O)c1ccc2c(c1)OCO2 [S807, N-(heptan-4-yl)benzo[d][1,3]dioxole-5-carboxamide, reference compound] | strongly affected | 
2 | N[C@@H](CCC(=O)N[C@@H](CS)C(=O)NCC(=O)O)C(=O)O [GSH, γ-L-glutamyl-L-cysteinyl-glycine] | fully abolished | > 30
3 | N[C@@H](CCC(=O)O)C(=O)O [L-Glu, L-glutamic acid, reference compound] | completely suppressed | 
